Test results reported in patent publication US11225505B2, “Antimicrobial polymyxin derivative compounds” (MONASH UNIVERSITY, priority 2015, dated 2022).
Converted amounts (≈) assume the structure as drawn. Where a SMILES comes first, the peptide text is derived from it. Bridges are numbered along the chain shown (N, C = ends). [ ]: non-standard residue; d: D form. The star is where a group is joined. X43 = O=C(c1ccc(-c2ccc(Cl)cc2)cn1)*; X55 = O=C(c1ccc(-c2ccc(Cl)nc2)cc1)*; X37 = O=C(c1ccc(-c2ccc(Cl)cc2)s1)*; X45 = O=C(c1cc(C(F)(F)F)ccn1)*; X4 = O=C(c1cncc(C(F)(F)F)c1)*; X2 = O=C(c1cc(Cl)cc(Cl)n1)*; X36 = O=C(c1ncc(Br)cc1Br)*; Dab = NCC[C@H](N)C(=O)O; Abu = CC[C@H](N)C(=O)O; Dap = NC[C@H](N)C(=O)O

Experiments:
Format in all cases: cell-based
[1] = tested on: Acinetobacter baumannii ATCC 17978; conditions: ATCC 17978
Experimental: (§1) MICs of the lipopeptides (trifluoroacetic acid salt, TFA) were determined by broth microdilution in cation-adjusted Mueller-Hinton broth (CAMHB) (Oxoid Australia, Thebarton, SA, Australia) according to the Clinical and Laboratory Standards Institute protocol (Clinical and Laboratory Standards Institute, Performance standards for antimicrobial susceptibility testing; twentyforth informational supplement M100-S24. Wayne, Pa., 2014). Polymyxin B sulphate was employed as the control. Antimicrobial activity of Compounds 1-104 against polymyxin-susceptible Gram-negative bacteria was examined. The following isolates were examined: Pseudomonas aeruginosa ATCC 27853, Pseudomonas aeruginosa FADDI-PA022*, Pseudomonas aeruginosa FADDI-PA01*, Pseudomonas aeruginosa FADDI-PA038*, Acinetobacter baumannii FADDI-AB034*, Acinetobacter baumannii ATCC 17978, Acinetobacter baumannii FADDI-AB030*, Klebsiella pneumoniae FADDI-KP032, Klebsiella pneumoniae FADDI-KP022*, Klebsiella pneumoniae Kp BM1*, Enterobacter cloacae FADDI-EC006, Enterobacter cloacae FADDI-EC001, and Enterobacter cloacae FADDI-EC003 (* Multi drug-resistant clinical isolates, § New Delhi Metallo-beta-lactamase-1 (NDM-1) producing). The results are illustrated in Tables 4 and 5.

[2] = tested on: Acinetobacter baumannii FADDI-AB034; conditions: FADDI-AB034
Experimental: as §1

[3] = tested on: Enterobacter cloacae FADDI-EC001; conditions: FADDI-EC001
Experimental: as §1

[4] = tested on: Enterobacter cloacae FADDI-EC003; conditions: FADDI-EC003
Experimental: as §1

[5] = tested on: Enterobacter cloacae FADDI-EC006; conditions: FADDI-EC006
Experimental: as §1

[6] = tested on: Klebsiella pneumoniae FADDI-KP022; conditions: FADDI-KP022
Experimental: as §1

[7] = tested on: Klebsiella pneumoniae FADDI-KP032; conditions: FADDI-KP032
Experimental: as §1

[8] = tested on: Klebsiella pneumoniae Kp BM1; conditions: Kp BM1
Experimental: as §1

[9] = tested on: Pseudomonas aeruginosa ATCC 27853; conditions: ATCC 27853
Experimental: as §1

[10] = tested on: Pseudomonas aeruginosa FADDI-PA01; conditions: FADDI-
Experimental: as §1

[11] = tested on: Pseudomonas aeruginosa FADDI-PA022; conditions: FADDI-PA022
Experimental: as §1

[12] = tested on: Pseudomonas aeruginosa FADDI-PA038; conditions: FADDI-PA038
Experimental: as §1

[13] = tested on: Acinetobacter baumannii FADDI-AB030; test: microbe, parasite or virus in culture; conditions: FADDI-AB030
Experimental: as §1, with “Antimicrobial activity of Compounds 1-104 against polymyxin-susceptible Gram-negative bacteria was examined.” left out, “5. […]” for “5.”

`CC(C)C[C@H]1NC(=O)[C@H](CCN)NC(=O)[C@@H](NC(=O)[C@H](CN)NC(=O)[C@@H](NC(=O)[C@H](CCN)NC(=O)c2ccc(-c3ccc(Cl)cc3)cn2)[C@@H](C)O)CCNC(=O)[C@H]([C@@H](C)O)NC(=O)[C@H](CCN)NC(=O)[C@H](CCN)NC(=O)[C@H]([C@@H](C)O)NC1=O` [Compound 15] (X43-[Dab]T[Dap][Dab][Dab][dL]T[Dab][Dab]T; lactam 4-C) was tested, and the Minimum inhibitory concentration [1] was 0.5 µg/mL (≈ 0.41 µM), the Minimum inhibitory concentration [2] was 0.5 µg/mL (≈ 0.41 µM) and the Minimum inhibitory concentration [3] was 0.25 µg/mL (≈ 0.205 µM). The Minimum inhibitory concentration [4] was under 0.125 µg/mL, the Minimum inhibitory concentration [5] was 0.25 µg/mL (≈ 0.205 µM) and the Minimum inhibitory concentration [6] was under 0.125 µg/mL. The Minimum inhibitory concentration [7] was 0.25 µg/mL (≈ 0.205 µM), the Minimum inhibitory concentration [8] was 0.5 µg/mL (≈ 0.41 µM) and the Minimum inhibitory concentration [9] was 1 µg/mL (≈ 0.82 µM). It also gave a Minimum inhibitory concentration [10] of 2 µg/mL (≈ 1.64 µM), a Minimum inhibitory concentration [11] of 2 µg/mL (≈ 1.64 µM) and a Minimum inhibitory concentration [12] of 1 µg/mL (≈ 0.82 µM). For the same molecule, the Minimum inhibitory concentration [13] was 1 µg/mL (≈ 0.82 µM).

In the case of `CC(C)C[C@H]1NC(=O)[C@H](CCN)NC(=O)[C@@H](NC(=O)[C@H](CN)NC(=O)[C@@H](NC(=O)[C@H](CCN)NC(=O)c2ccc(-c3ccc(Cl)nc3)cc2)[C@@H](C)O)CCNC(=O)[C@H]([C@@H](C)O)NC(=O)[C@H](CCN)NC(=O)[C@H](CCN)NC(=O)[C@H]([C@@H](C)O)NC1=O` [Compound 16] (X55-[Dab]T[Dap][Dab][Dab][dL]T[Dab][Dab]T; lactam 4-C), the Minimum inhibitory concentration [1] is reported as 2 µg/mL (≈ 1.64 µM), the Minimum inhibitory concentration [2] is reported as 4 µg/mL (≈ 3.28 µM) and the Minimum inhibitory concentration [3] is reported as 0.5 µg/mL (≈ 0.41 µM). It also gave a Minimum inhibitory concentration [4] of under 0.125 µg/mL, a Minimum inhibitory concentration [5] of 0.5 µg/mL (≈ 0.41 µM) and a Minimum inhibitory concentration [6] of under 0.125 µg/mL. It also gave a Minimum inhibitory concentration [7] of 0.25 µg/mL (≈ 0.205 µM), a Minimum inhibitory concentration [8] of 2 µg/mL (≈ 1.64 µM) and a Minimum inhibitory concentration [9] of 0.5 µg/mL (≈ 0.41 µM). For the same molecule, the Minimum inhibitory concentration [10] was 0.5 µg/mL (≈ 0.41 µM), the Minimum inhibitory concentration [11] was 1 µg/mL (≈ 0.82 µM) and the Minimum inhibitory concentration [12] was 1 µg/mL (≈ 0.82 µM). The Minimum inhibitory concentration [13] was 8 µg/mL (≈ 6.56 µM).

`CC(C)C[C@H]1NC(=O)[C@H](CCN)NC(=O)[C@@H](NC(=O)[C@H](CN)NC(=O)[C@@H](NC(=O)[C@H](CCN)NC(=O)c2ccc(-c3ccc(Cl)cc3)s2)[C@@H](C)O)CCNC(=O)[C@H]([C@@H](C)O)NC(=O)[C@H](CCN)NC(=O)[C@H](CCN)NC(=O)[C@H]([C@@H](C)O)NC1=O` [Compound 17] (X37-[Dab]T[Dap][Dab][Dab][dL]T[Dab][Dab]T; lactam 4-C) was tested, and the Minimum inhibitory concentration [1] was 2 µg/mL (≈ 1.63 µM), the Minimum inhibitory concentration [2] was 1 µg/mL (≈ 0.817 µM) and the Minimum inhibitory concentration [3] was 0.25 µg/mL (≈ 0.204 µM). The Minimum inhibitory concentration [4] was 1 µg/mL (≈ 0.817 µM), the Minimum inhibitory concentration [5] was 0.5 µg/mL (≈ 0.409 µM) and the Minimum inhibitory concentration [6] was under 0.125 µg/mL. It also gave a Minimum inhibitory concentration [7] of 0.5 µg/mL (≈ 0.409 µM), a Minimum inhibitory concentration [8] of 0.5 µg/mL (≈ 0.409 µM) and a Minimum inhibitory concentration [9] of 1 µg/mL (≈ 0.817 µM). It also gave a Minimum inhibitory concentration [10] of 0.5 µg/mL (≈ 0.409 µM), a Minimum inhibitory concentration [11] of 1 µg/mL (≈ 0.817 µM) and a Minimum inhibitory concentration [12] of 1 µg/mL (≈ 0.817 µM). The Minimum inhibitory concentration [13] was 0.25 µg/mL (≈ 0.204 µM).

With `CC[C@@H]1NC(=O)[C@@H](CC(C)C)NC(=O)[C@H](CCN)NC(=O)[C@@H](NC(=O)[C@H](CN)NC(=O)[C@@H](NC(=O)[C@H](CCN)NC(=O)c2cc(Cl)cc(Cl)n2)[C@@H](C)O)CCNC(=O)[C@H]([C@@H](C)O)NC(=O)[C@H](CCN)NC(=O)[C@H](CCN)NC1=O` [Compound 18] (X2-[Dab]T[Dap][Dab][Dab][dL][Abu][Dab][Dab]T; lactam 4-C) the Minimum inhibitory concentration [1] was 1 µg/mL (≈ 0.861 µM), the Minimum inhibitory concentration [2] was 0.25 µg/mL (≈ 0.215 µM) and the Minimum inhibitory concentration [3] was under 0.125 µg/mL. It also gave a Minimum inhibitory concentration [4] of 0.5 µg/mL (≈ 0.431 µM), a Minimum inhibitory concentration [5] of 0.25 µg/mL (≈ 0.215 µM) and a Minimum inhibitory concentration [6] of under 0.125 µg/mL. For the same molecule, the Minimum inhibitory concentration [7] was 0.25 µg/mL (≈ 0.215 µM), the Minimum inhibitory concentration [8] was 0.25 µg/mL (≈ 0.215 µM) and the Minimum inhibitory concentration [9] was 0.25 µg/mL (≈ 0.215 µM). For the same molecule, the Minimum inhibitory concentration [10] was 0.25 µg/mL (≈ 0.215 µM), the Minimum inhibitory concentration [11] was 0.5 µg/mL (≈ 0.431 µM) and the Minimum inhibitory concentration [12] was 1 µg/mL (≈ 0.861 µM). The Minimum inhibitory concentration [13] was 0.5 µg/mL (≈ 0.431 µM).

`CC[C@@H]1NC(=O)[C@@H](CC(C)C)NC(=O)[C@H](CCN)NC(=O)[C@@H](NC(=O)[C@H](CN)NC(=O)[C@@H](NC(=O)[C@H](CCN)NC(=O)c2cncc(C(F)(F)F)c2)[C@@H](C)O)CCNC(=O)[C@H]([C@@H](C)O)NC(=O)[C@H](CCN)NC(=O)[C@H](CCN)NC1=O` [Compound 20] (X4-[Dab]T[Dap][Dab][Dab][dL][Abu][Dab][Dab]T; lactam 4-C) showed a Minimum inhibitory concentration [1] of 2 µg/mL (≈ 1.72 µM), a Minimum inhibitory concentration [2] of 0.5 µg/mL (≈ 0.431 µM) and a Minimum inhibitory concentration [3] of 0.5 µg/mL (≈ 0.431 µM). For the same molecule, the Minimum inhibitory concentration [4] was 4 µg/mL (≈ 3.45 µM), the Minimum inhibitory concentration [5] was 0.5 µg/mL (≈ 0.431 µM) and the Minimum inhibitory concentration [6] was under 0.125 µg/mL. The Minimum inhibitory concentration [7] was 0.5 µg/mL (≈ 0.431 µM), the Minimum inhibitory concentration [8] was 0.25 µg/mL (≈ 0.215 µM) and the Minimum inhibitory concentration [9] was 0.5 µg/mL (≈ 0.431 µM). The Minimum inhibitory concentration [10] was 0.5 µg/mL (≈ 0.431 µM), the Minimum inhibitory concentration [11] was 0.5 µg/mL (≈ 0.431 µM) and the Minimum inhibitory concentration [12] was 0.5 µg/mL (≈ 0.431 µM). The Minimum inhibitory concentration [13] was 0.5 µg/mL (≈ 0.431 µM).

`CC[C@@H]1NC(=O)[C@@H](CC(C)C)NC(=O)[C@H](CCN)NC(=O)[C@@H](NC(=O)[C@H](CN)NC(=O)[C@@H](NC(=O)[C@H](CCN)NC(=O)c2cc(C(F)(F)F)ccn2)[C@@H](C)O)CCNC(=O)[C@H]([C@@H](C)O)NC(=O)[C@H](CCN)NC(=O)[C@H](CCN)NC1=O` [Compound 21] (X45-[Dab]T[Dap][Dab][Dab][dL][Abu][Dab][Dab]T; lactam 4-C) gave a Minimum inhibitory concentration [1] of 0.25 µg/mL (≈ 0.215 µM), a Minimum inhibitory concentration [2] of 0.25 µg/mL (≈ 0.215 µM) and a Minimum inhibitory concentration [3] of under 0.125 µg/mL. The Minimum inhibitory concentration [4] was 0.25 µg/mL (≈ 0.215 µM), the Minimum inhibitory concentration [5] was 1 µg/mL (≈ 0.862 µM) and the Minimum inhibitory concentration [6] was under 0.125 µg/mL. For the same molecule, the Minimum inhibitory concentration [7] was under 0.125 µg/mL, the Minimum inhibitory concentration [8] was under 0.125 µg/mL and the Minimum inhibitory concentration [9] was 0.25 µg/mL (≈ 0.215 µM). For the same molecule, the Minimum inhibitory concentration [10] was 0.25 µg/mL (≈ 0.215 µM), the Minimum inhibitory concentration [11] was 0.25 µg/mL (≈ 0.215 µM) and the Minimum inhibitory concentration [12] was 0.5 µg/mL (≈ 0.431 µM). For the same molecule, the Minimum inhibitory concentration [13] was 0.25 µg/mL (≈ 0.215 µM).

`CC[C@@H]1NC(=O)[C@@H](CC(C)C)NC(=O)[C@H](CCN)NC(=O)[C@@H](NC(=O)[C@H](CN)NC(=O)[C@@H](NC(=O)[C@H](CCN)NC(=O)c2ncc(Br)cc2Br)[C@@H](C)O)CCNC(=O)[C@H]([C@@H](C)O)NC(=O)[C@H](CCN)NC(=O)[C@H](CCN)NC1=O` [Compound 22] (X36-[Dab]T[Dap][Dab][Dab][dL][Abu][Dab][Dab]T; lactam 4-C) was tested, and the Minimum inhibitory concentration [1] was 0.5 µg/mL (≈ 0.4 µM), the Minimum inhibitory concentration [2] was 0.5 µg/mL (≈ 0.4 µM) and the Minimum inhibitory concentration [3] was under 0.125 µg/mL. It also gave a Minimum inhibitory concentration [4] of under 0.125 µg/mL, a Minimum inhibitory concentration [5] of under 0.125 µg/mL and a Minimum inhibitory concentration [6] of under 0.125 µg/mL. It also gave a Minimum inhibitory concentration [7] of under 0.125 µg/mL, a Minimum inhibitory concentration [8] of under 0.125 µg/mL and a Minimum inhibitory concentration [9] of 0.5 µg/mL (≈ 0.4 µM). It also gave a Minimum inhibitory concentration [10] of 0.25 µg/mL (≈ 0.2 µM), a Minimum inhibitory concentration [11] of 0.5 µg/mL (≈ 0.4 µM) and a Minimum inhibitory concentration [12] of 0.5 µg/mL (≈ 0.4 µM). It also gave a Minimum inhibitory concentration [13] of 0.5 µg/mL (≈ 0.4 µM).
